According to patent US9365604B2, “Oligomer-nucleoside phosphate conjugates” (NEKTAR THERAPEUTICS, priority 2007, dated 2016):
Where two headings read alike, the source gives them in different places.

Legend:
PANC-1 = test: In vitro cytotoxicity assay (CellTiter-Glo); assay type: cell-based; conditions: 72 h exposure
Description: The objective of these studies was to determine the IC50 values for PEG-gemcitabine conjugates against gemcitabine-resistant cell lines based on data from previous Xenograft studies. The cells were exposed for 72 h, and cell viability assessed by using the CellTiter-Glo assay.
The PEG-gemcitabine derivatives and gemcitabine inhibited the growth of most of the cell lines with IC50 values from the nM to low μM range, except for PANC-1 cells. Like the previous study, some of the IC50 values should be interpreted carefully because the concentration range tested was not centered around the IC50. […] The PANC-1 pancreatic cell line, in contrast to BxPC-3, Capan-1, or MIA-PaCa-2, has been shown previously to be resistant in vitro to gemcitabine, and 4′-thio-FAC, a deoxycytidine sulfur- and fluoro-substituted analog (Zajchowski et al., (2005). Int J Cancer. 114(6), 1002-9).

Caco-2 cells = test: Bi-directional permeability in Caco-2 cells
Description: Bi-Directional Permeability of PEG-Floxuridine Conjugates in Caco-2 and MDCK Cells

MCF7 = test: Sulforhodamine B (SRB) growth inhibition assay; assay type: cell-based, Human; conditions: for ratio vs gem (GI50) MCF7: GI50 of conjugate vs gemcitabine; for GI50: SRB assay
Hop62 = test: Sulforhodamine B (SRB) growth inhibition assay; assay type: cell-based, Human; conditions: for ratio vs gem (GI50) Hop62: GI50 of conjugate vs gemcitabine; for GI50: SRB assay
[1] = 48 h drug exposure, read-out: GI50 (molar concentration) in Cell Line MCF7
[2] = cells exposed for 24 h, read-out: GI50 values (μM) MCF7
[3] = 48 h drug exposure, read-out: GI50 (molar concentration) in Cell Line Hop62
[4] = cells exposed for 24 h, read-out: GI50 values (μM) Hop62

Compound	IC50 (PANC-1)	Papp A -> B (Caco-2 cells)	Papp B -> A (Caco-2 cells)	Significant efflux (Caco-2 cells)	percent recovery A -> B (Caco-2 cells)	percent recovery B -> A (Caco-2 cells)	ratio vs gem (GI50) MCF7 (MCF7)	GI50 (MCF7; [1])	GI50 (MCF7; [2])	ratio vs gem (GI50) Hop62 (Hop62)	GI50 (Hop62; [3])	GI50 (Hop62; [4])
COCCOCCOCCOCCOCCOCCOCCOP(=O)(O)OC[C@H]1O[C@@H](n2ccc(N)nc2=O)C(F)(F)[C@@H]1O.Cl [Gemcitabine Mono (mPEG7), 5′-gemcitabine methoxy hepta(ethylene glycol) phosphate hydrochloride]	> 1e+06 nM	<0.06 10^−6 cm/s	<0.08 10^−6 cm/s	No	74%	86%	2	0.16 µM	0.16 µM	1	2.4 µM	2.4 µM
COCCOCCOCCOP(=O)(O)OC[C@H]1O[C@@H](n2ccc(N)nc2=O)C(F)(F)[C@@H]1O.Cl [Gemcitabine Mono (mPEG3), 5′-gemcitabine methoxy tri(ethylene glycol) phosphate hydrochloride]	> 1e+06 nM	<0.06 10^−6 cm/s	<0.08 10^−6 cm/s	No	78%	90%	2	0.16 µM	0.158 µM	1	2.6 µM	2.6 µM
